The source of these data is patent EP4786466A1, “QUINAZOLINE DERIVATIVE, SALT THEREOF, AND PHARMACEUTICAL COMPOSITION COMPRISING SAME AS ACTIVE INGREDIENT” (Korea Research Institute of Chemical Technology, priority 2023, dated 2025).

Structures are written as SMILES. Where two headings read alike, the source gives them in different places.

Usually IC50 stands for the concentration needed to halve the response being measured.

For one assay, the system named is pENSA. Description: pENSA level by immunofluorescence (described method: in vitro kinase analysis with GST-tag-MASTL and His-tag-ENSA). Type of assay: cell-based. To be noted: for pENSA (%) Immunofluor ecense (1 µM): compound 1 µM. Here is the method: Two recombinant GST-tag-MASTL (Thermo Fisher Scientific) and His-tag-ENSA (Sino Biological Inc., Beijing, China) were used for in vitro kinase analysis. In vitro kinase analysis was performed as described in the literature [Front Oncol 2020, 10, 571601, 39-202021-10-20doi:10.3389/fonc.2020.571601.].
Phosphorylated ENSA (pENSA), which is activated by phosphorylation by MASTL, can be utilized as a biomarker as it is expected that its activity will be inhibited along with the inhibition of MASTL. In the cell viability assay, MCF7 refers to a breast cancer cell line, and MCF10A refers to a normal breast […] cell line.

Assay [1] concerns the target T1, Recombinant GST-TAG-MASTL (Homo sapiens, UniProt Q96GX5).
T1 construct: GST; purchased Thermo Fisher Scientific
T1 sequence (Q96GX5 1-879): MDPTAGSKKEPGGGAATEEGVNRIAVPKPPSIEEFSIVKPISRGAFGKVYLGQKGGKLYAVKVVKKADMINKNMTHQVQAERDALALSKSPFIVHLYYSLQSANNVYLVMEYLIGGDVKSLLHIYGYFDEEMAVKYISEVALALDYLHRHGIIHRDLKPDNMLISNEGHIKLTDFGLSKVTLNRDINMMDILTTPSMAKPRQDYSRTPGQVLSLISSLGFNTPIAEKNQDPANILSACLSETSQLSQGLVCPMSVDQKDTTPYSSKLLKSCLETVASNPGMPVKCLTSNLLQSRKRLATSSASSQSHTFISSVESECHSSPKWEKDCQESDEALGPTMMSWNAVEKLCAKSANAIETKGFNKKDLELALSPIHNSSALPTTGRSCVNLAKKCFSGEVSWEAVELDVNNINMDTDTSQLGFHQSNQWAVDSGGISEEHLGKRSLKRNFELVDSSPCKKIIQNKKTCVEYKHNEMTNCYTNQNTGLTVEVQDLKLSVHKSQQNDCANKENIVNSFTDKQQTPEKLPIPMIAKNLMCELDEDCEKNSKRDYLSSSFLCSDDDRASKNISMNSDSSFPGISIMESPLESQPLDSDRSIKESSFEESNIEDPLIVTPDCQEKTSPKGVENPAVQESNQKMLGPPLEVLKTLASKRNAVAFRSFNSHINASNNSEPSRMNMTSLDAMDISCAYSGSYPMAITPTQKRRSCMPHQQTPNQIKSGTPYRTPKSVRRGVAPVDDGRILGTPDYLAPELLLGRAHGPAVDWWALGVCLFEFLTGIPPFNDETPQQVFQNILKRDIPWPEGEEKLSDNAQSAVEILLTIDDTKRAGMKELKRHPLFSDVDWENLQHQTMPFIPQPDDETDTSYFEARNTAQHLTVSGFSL
Description: HTRF-based kinase assay (HTRF KinEASE assay kit). Type of assay: biochemical. To be noted: for activity at 1 µM: read-out: MASTL activity (%) HTRF (1 µM). From the text:
Recombinant GST-TAG-MASTL (Thermo Fisher Scientific, MA, USA) was used for HTRF-based kinase assays. The HTRF KinEASE assay kit (CisBio, MA, USA) was used according to the manufacturer's instructions.

The subject of assay [2] is MCF7 breast cancer cell lines. Description: Cell viability analysis, WST-8 assay, MCF7. To be noted: Homo sapiens, MCF7, 72 h; for viability at 10 µM: read-out: Cell viability (%) WST-8, MCF7, footnote b: concentration 10 µM, 72 hours; for IC50: read-out: IC50 Cell viability (MCF7).
Description: MCF7 breast cancer cell lines and MCF10A normal breast cancer cell lines were treated with serial dilutions of the compounds of the present invention ranging from 1 µM to 15.63 nM for 72 hours. Cell viability was measured by the WST-8 assay (Cyto XTM cell viability assay kit; LPS solution, Daejeon, Korea) according to the manufacturer's instructions.
[3] abbreviates: footnote b: concentration 10 µM.
Setting [4] is: HTRF, read-out: IC50(nM) MASTL activity.
Setting [5] is: footnote b: concentration 10 µM, read-out: MASTL activity (%) HTRF.
[6] abbreviates: read-out: Cell viability (%) WST-8, MCF7 (1 µM).
[7] abbreviates: read-out: Cell viability (%) WST-8, MCF7 (1 µM), compound 1 µM, 72 hours.
Where [8] appears, read: read-out: MASTL activity (%) HTRF.

With `Cc1cccc(S(=O)(=O)N2CC3CC2CN3c2nc(Nc3cc(C4CC4)[nH]n3)c3ccccc3n2)c1` (centres unmarked) [compound 15t, M-(5-cyclopropyl-1G-pyrazol-3-yl)-2-(5-(/ -tolylsulfonyl)-2,5-diazabicyclo[2.2.1]heptan-2-yl)quinazolin-4-amine], the “pENSA (%) Immunofluor ecense” value in the assay on pENSA (setting [3]) was 0^b %. The IC50 turned out to be 6.2 µM in the assay with pENSA (unit µM, read-out: IC50 pENSA); 563 nM in assay [1] (setting [4]); 7.9 µM in assay [2]. Also, in assay [1] (setting [5]), the activity at 10 µM stood at 15.5%. Moreover, the viability at 10 µM in assay [2] is 35.5%.

As to `N#CCc1ccc(Nc2nc(Nc3n[nH]c4ccccc34)c3ccccc3n2)cc1` [compound 3s, 2-(4-((4-((1G-indazol-3-yl)amino)quinazolin-2-yl)amino)phenyl)acetonitrile], the “pENSA (%) Immunofluor ecense (1 µM)” value in the assay on pENSA was found to be 60.6%. Further, in assay [1] (HTRF, unit µM, read-out: IC50 MASTL activity), the IC50 turned out to be 4400 nM. Moreover, in assay [1] (compound 1 µM), the activity at 1 µM was 102%. Moreover, the viability at 1 µM in assay [2] (setting [6]) came out at 100%.

With `N#CCc1ccc(Nc2nc(Nc3cc(Br)[nH]n3)c3ccccc3n2)cc1` [compound 3q, 2-(4-((4-((5-bromo-1G-pyrazol-3-yl)amino)quinazolin-2-yl)amino)phenyl)acetonitrile], in assay [1], the IC50 was 640 nM and the activity at 1 µM turned out to be 63.1%. For the same compound, the viability at 1 µM in assay [2] (setting [7]) was 105%.

For `O=S(=O)(c1cccs1)N1CC2CC1CN2c1nc(Nc2cc(C3CC3)[nH]n2)c2ccccc2n1` (centres unmarked) [compound 15ab, M-(5-cyclopropyl-1G-pyrazol-3-yl)-2-(5-(thiophen-2-ylsulfonyl)-2,5-diazabicyclo[2.2.1]heptan-2-yl)quinazolin-4-amine], the “pENSA (%) Immunofluor ecense” value with pENSA (setting [3]) is 0.4^b %. In addition, the IC50 is 2.5 µM in the assay with pENSA (unit µM, read-out: IC50 pENSA); 222 nM in assay [1] (setting [4]); 2.4 µM in assay [2]. Also, the activity at 10 µM in assay [1] (setting [5]) was 17.3%. The viability at 10 µM in assay [2] was determined as 3.9%.

In the case of `O=S(=O)(c1ccc(-c2ccccc2)cc1)N1CC2CC1CN2c1nc(Nc2cc(C3CC3)[nH]n2)c2ccccc2n1` (centres unmarked) [compound 15aa, 2-(5-([1,1'-biphenyl]-4-ylsulfonyl)-2,5-diazabicyclo[2.2.1]heptan-2-yl)-M-(5-cyclopropyl-1G-pyrazol-3-yl)quinazolin-4-amine], the “pENSA (%) Immunofluor ecense” value with pENSA (footnote d: concentration 1.1 µM) is listed as 61.2^d %. Also, the activity at 1.1 µM in assay [1] (setting [8]) was 55.5%. In addition, in assay [2] (read-out: Cell viability (%) WST-8, MCF7, footnote d: concentration 1.1 µM, 72 hours), the viability at 1.1 µM worked out at 87.5%.

With `N#CCc1ccc(Nc2nc(Nc3ccccc3O)c3ccccc3n2)cc1` [compound 3u, 2-(4-((4-((2-hydroxyphenyl)amino)quinazolin-2-yl)amino)phenyl)acetonitrile], the IC50 in the assay with pENSA (read-out: IC50(nM) pENSA) was found to be 0.678 µM. Moreover, the activity at 1 µM in assay [1] (compound 1 µM) was 121%. In addition, the viability at 1 µM in assay [2] (setting [7]) was found to be 49.3%.

Consider `O=S(=O)(c1ccc2ccccc2c1)N1CC2CC1CN2c1nc(Nc2cc(C3CC3)[nH]n2)c2ccccc2n1` (centres unmarked) [compound 15y, M-(5-cyclopropyl-1G-pyrazol-3-yl)-2-(5-(naphthalen-2-ylsulfonyl)-2,5-diazabicyclo[2.2.1]heptan-2-yl)quinazolin-4-amine], for which the “pENSA (%) Immunofluor ecense” value in the assay with pENSA (setting [3]) is 35.5^b %. Besides, the IC50 with pENSA (unit µM, read-out: IC50 pENSA) is 6.9 µM; in assay [1] (setting [4]) it was 928 nM; in assay [2], 8.2 µM. In assay [1] (setting [5]), the activity at 10 µM stood at 18.5%. The viability at 10 µM in assay [2] was 64.1%.

Consider `COc1cc(Nc2nc(Nc3ccc(CC#N)cc3)nc3ccccc23)n[nH]1` [compound 3r, 2-(4-((4-((5-methoxy-1G-pyrazol-3-yl)amino)quinazolin-2-yl)amino)phenyl)acetonitrile], for which, in assay [1], the IC50 stood at 816 nM and the activity at 1 µM was determined as 67.2%. In addition, the viability at 1 µM in assay [2] (setting [7]) is 98.3%.

For `Cc1cc(Nc2nc(Nc3ccc(CC#N)cc3)nc3ccccc23)n[nH]1` [compound 3p, 2-(4-((4-((5-methyl-1G-pyrazol-3-yl)amino)quinazolin-2-yl)amino)phenyl)acetonitrile], the “pENSA (%) Immunofluor ecense (1 µM)” value with pENSA turned out to be 27.5%. Moreover, the IC50 amounted to 0.239 µM in the assay on pENSA (read-out: IC50(nM) pENSA) and 330 nM in assay [1] (setting [4]). For the same compound, the activity at 1 µM in assay [1] (compound 1 µM) worked out at 53.1%. The viability at 1 µM in assay [2] (setting [6]) is 106%.

In the case of `COc1cccc(S(=O)(=O)N2CC3CC2CN3c2nc(Nc3cc(C4CC4)[nH]n3)c3ccccc3n2)c1` (centres unmarked) [compound 15r, M-(5-cyclopropyl-1G-pyrazol-3-yl)-2-(5-((3-methoxyphenyl)sulfonyl)-2,5-diazabicyclo[2.2.1]heptan-2-yl)quinazolin-4-amine], the “pENSA (%) Immunofluor ecense” value in the assay with pENSA (setting [3]) is on record as 0.2^b %. Moreover, the IC50 is 5.5 µM in the assay on pENSA (unit µM, read-out: IC50 pENSA); 492 nM in assay [1] (setting [4]); 4.3 µM in assay [2]. Moreover, the activity at 10 µM in assay [1] (setting [5]) is 22.7%. Also, the viability at 10 µM in assay [2] was 19%.

`Cc1nn(CC(C)C)c(C)c1Nc1nc(Nc2ccc(CC#N)cc2)nc2ccccc12` [compound 3b, 2-(4-((4-((1-isobutyl-3,5-dimethyl-1G-pyrazol-4-yl)amino)quinazolin-2-yl)amino)phenyl)acetonitrile]: the “pENSA (%) Immunofluor ecense” value in the assay on pENSA (setting [3]) is recorded as 44.3^b %. In addition, in assay [1] (setting [8]), the activity at 10 µM came to 123%. The viability at 10 µM in assay [2] was determined as 55.5%.

Consider `CC(=O)c1ccc(S(=O)(=O)N2CC3CC2CN3c2nc(Nc3cc(C4CC4)[nH]n3)c3ccccc3n2)cc1` (centres unmarked) [compound 15s, 1-(4-((5-(4-((5-cyclopropyl-1G-pyrazol-3-yl)amino)quinazolin-2-yl)-2,5-diazabicyclo[2.2.1]heptan-2-yl)sulfonyl)phenyl)ethan-1-one], for which the “pENSA (%) Immunofluor ecense” value with pENSA (setting [3]) is 0.2^b %. The IC50 with pENSA (unit µM, read-out: IC50 pENSA) was 2.2 µM; in assay [1] (setting [4]) it was 354 nM; in assay [2], 2.9 µM. Besides, the activity at 10 µM in assay [1] (setting [5]) turned out to be 19.2%. Besides, the viability at 10 µM in assay [2] was 5.1%.

As to `Cc1n[nH]cc1Nc1nc(Nc2ccc(CC#N)cc2)nc2ccccc12` [compound 3e, 2-(4-((4-((3-methyl-1G-pyrazol-4-yl)amino)quinazolin-2-yl)amino)phenyl)acetonitrile], the “pENSA (%) Immunofluor ecense” value with pENSA (setting [3]) is 102^b %. In addition, in assay [1] (setting [8]), the activity at 10 µM was 100%. For the same compound, in assay [2], the viability at 10 µM stood at 108%.

As for `O=S(=O)(Cc1ccccc1)N1CC2CC1CN2c1nc(Nc2cc(C3CC3)[nH]n2)c2ccccc2n1` (centres unmarked) [compound 15l, 2-(5-(benzylsulfonyl)-2,5-diazabicyclo[2.2.1]heptan-2-yl)-M-(5-cyclopropyl-1G-pyrazol-3-yl)quinazolin-4-amine], in the assay on pENSA (setting [3]), the “pENSA (%) Immunofluor ecense” value was 1.9^b %. Also, the IC50 in the assay with pENSA (unit µM, read-out: IC50 pENSA) is 3.7 µM; in assay [1] (setting [4]), 226 nM; in assay [2] it was 2.7 µM. Besides, the activity at 10 µM in assay [1] (setting [5]) amounted to 18.1%. The viability at 10 µM in assay [2] turned out to be 2.4%.

As for `N#CCc1ccc(Nc2nc(Nc3ccccc3OCc3ccccc3)c3ccccc3n2)cc1` [compound 3t, 2-(4-((4-((2-(benzyloxy)phenyl)amino)quinazolin-2-yl)amino)phenyl)acetonitrile], in assay [1] (compound 1 µM), the activity at 1 µM was 120%. In addition, the viability at 1 µM in assay [2] (setting [7]) was determined as 45.4%.

As to `N#CCc1ccc(Nc2nc(Nc3cc[nH]n3)c3ccccc3n2)cc1` [compound 3o, 2-(4-((4-((1G-pyrazol-3-yl)amino)quinazolin-2-yl)amino)phenyl)acetonitrile], in assay [1], the IC50 is 2600 nM and the activity at 1 µM was 102%. Further, the viability at 1 µM in assay [2] (setting [7]) worked out at 108%.
